Laboratory results published in US8822503B2, “2-pyridone compounds” (Taisho Pharmaceutical Co., Ltd, priority 2009, dated 2014).

Target: T1, human liver GK (Homo sapiens, UniProt P35557)
T1 construct: GST (glutathione S-transferase) (N); made in house; host or cells: E. coli
T1 sequence (P35557 1-466 isoform P35557-2): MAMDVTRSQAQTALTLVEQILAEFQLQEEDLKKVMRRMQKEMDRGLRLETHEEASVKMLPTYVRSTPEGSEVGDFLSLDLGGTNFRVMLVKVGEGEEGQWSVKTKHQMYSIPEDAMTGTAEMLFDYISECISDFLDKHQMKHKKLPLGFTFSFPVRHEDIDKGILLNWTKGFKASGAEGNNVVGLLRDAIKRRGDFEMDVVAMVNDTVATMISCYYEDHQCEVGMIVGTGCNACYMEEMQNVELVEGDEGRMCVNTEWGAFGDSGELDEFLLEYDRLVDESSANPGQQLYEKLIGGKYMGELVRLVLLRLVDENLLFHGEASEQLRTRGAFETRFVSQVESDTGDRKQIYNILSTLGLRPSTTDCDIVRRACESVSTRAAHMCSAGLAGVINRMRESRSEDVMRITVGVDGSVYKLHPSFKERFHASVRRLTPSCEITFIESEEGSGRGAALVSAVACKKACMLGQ
Assay: GK activation test
Type: biochemical
Settings: test compound concentration needed to activate 50% of maximum activation ability; 4 mM 14C-labeled glucose, 2 mM ATP, room temperature, 20 minutes
Outline: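 GST-tagged human liver GK from E. coli (0.24 μg/well) with 4 mM 14C-glucose, 2 mM ATP in Hepes-KOH pH 7.1, KCl, MgCl2, DTT, 1% DMSO, 20 min room temperature. Labeled glucose 6-phosphate captured on anion resin, eluted and counted. EC50 = concentration giving half of maximal activation.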

**Q.** For `O=C1CC[C@H](/C=C(\c2ccc(C3CC3)cc2)c2ccc(Cl)c(=O)[nH]2)N1` [Example 4-88, 3-Chloro-6-{(E)-1-(4-cyclopropylphenyl)-2-[(2R)-5-oxopyrrolidin-2-yl]ethenyl}pyridin-2(1H)-one], which EC50 is on record?
**A.** 500 to 3000 nM

**Q.** With `CN1CCN(S(=O)(=O)c2ccc(C(C[C@H]3CCC(=O)N3)c3ccc(Cl)c(=O)[nH]3)cc2)CC1` (stereo partly drawn) [Example 4-89, 3-Chloro-6-(1-{4-[(4-methylpiperazin-1-yl)sulfonyl]phenyl}-2-[(2R)-5-oxopyrrolidin-2-yl]ethyl)pyridin-2(1H)-one] as the compound, how does the EC50 read?
**A.** 3000 to 10000 nM

**Q.** Which EC50 does the source give for `O=C1CC[C@H](/C=C(\c2ccc(OC3CC3)cc2)c2ccc(Cl)c(=O)[nH]2)N1` [Example 4-90, 3-Chloro-6-{(E)-1-[4-(cyclopropyloxy)phenyl]-2-[(2R)-5-oxopyrrolidin-2-yl]ethenyl}pyridin-2(1H)-one] here?
**A.** 500 to 3000 nM

**Q.** For `CC(C)(C)c1ccc(/C(=C\[C@H]2CCN(C(=O)C3CC3)C2)c2ccc(Cl)c(=O)[nH]2)cc1` [Example 4-92, 6-{(E)-1-(4-tert-Butylphenyl)-2-[(3R)-1-(cyclopropylcarbonyl)pyrrolidin-3-yl]ethenyl}-3-chloropyridin-2(1H)-one], which EC50 is on record?
**A.** 10 to 500 nM

**Q.** With `CC(C)(C)c1ccc(/C(=C\[C@H]2CCN(C(=O)C3CCOCC3)C2)c2ccc(Cl)c(=O)[nH]2)cc1` [Example 4-93, 6-{(E)-1-(4-tert-Butylphenyl)-2-[(3R)-1-(tetrahydro-2H-pyran-4-ylcarbonyl)pyrrolidin-3-yl]ethenyl}-3-chloropyridin-2(1H)-one] as the compound, how does the EC50 read?
**A.** 3000 to 10000 nM

**Q.** `O=C1CC[C@H](/C=C(\c2ccc(Cl)cc2)c2ccc(C3CC3)c(=O)[nH]2)N1` [Example 4-98, 6-{(E)-1-(4-Chlorophenyl)-2-[(2R)-5-oxopyrrolidin-2-yl]ethenyl}-3-cyclopropylpyridin-2(1H)-one] was tested. Which EC50 did it give?
**A.** 10 to 500 nM

**Q.** Which EC50 does the source give for `O=C1CC[C@H](/C=C(\c2ccc(C(F)(F)F)cc2)c2ccc(C3CC3)c(=O)[nH]2)N1` [Example 4-99, 3-Cyclopropyl-6-{(E)-2-[(2R)-5-oxopyrrolidin-2-yl]-1-[4-(trifluoromethyl)phenyl]ethenyl}pyridin-2(1H)-one] here?
**A.** 10 to 500 nM

**Q.** `O=C1CC[C@H](/C=C(\c2ccc(F)cc2)c2ccc(C3CC3)c(=O)[nH]2)N1` [Example 4-100, 3-Cyclopropyl-6-{(E)-1-(4-fluorophenyl)-2-[(2R)-5-oxopyrrolidin-2-yl]ethenyl}pyridin-2(1H)-one] was tested. Which EC50 did it give?
**A.** 500 to 3000 nM

**Q.** `O=C1CC[C@H](/C=C(\c2ccc(Cl)c(Cl)c2)c2ccc(C3CC3)c(=O)[nH]2)N1` [Example 4-101, 3-Cyclopropyl-6-{(E)-1-(3,4-dichlorophenyl)-2-[(2R)-5-oxopyrrolidin-2-yl]ethenyl}pyridin-2(1H)-one] was tested. Which EC50 did it give?
**A.** 10 to 500 nM

**Q.** `Cc1ccc(/C(=C\[C@H]2CCC(=O)N2)c2ccc(C3CC3)c(=O)[nH]2)c(F)c1` [Example 4-102, 3-Cyclopropyl-6-{(E)-1-(2-fluoro-4-methylphenyl)-2-[(2R)-5-oxopyrrolidin-2-yl]ethenyl}pyridin-2(1H)-one] was tested. Which EC50 did it give?
**A.** 10 to 500 nM

**Q.** How did the EC50 turn out when `O=C1CC[C@H](/C=C(\c2ccc(C(F)(F)F)c(Cl)c2)c2ccc(C3CC3)c(=O)[nH]2)N1` [Example 4-103, 6-{(E)-1-[3-Chloro-4-(trifluoromethyl)phenyl]-2-[(2R)-5-oxopyrrolidin-2-yl]ethenyl}-3-cyclopropylpyridin-2(1H)-one] was run?
**A.** 10 to 500 nM

**Q.** `O=C1CC[C@H](/C=C(\c2ccc(F)c(Cl)c2)c2ccc(C3CC3)c(=O)[nH]2)N1` [Example 4-104, 6-{(E)-1-(3-Chloro-4-fluorophenyl)-2-[(2R)-5-oxopyrrolidin-2-yl]ethenyl}-3-cyclopropylpyridin-2(1H)-one] was tested. Which EC50 did it give?
**A.** 500 to 3000 nM

**Q.** Which EC50 does the source give for `O=C1CC[C@H](/C=C(\c2ccc(Cl)c(C(F)(F)F)c2)c2ccc(C3CC3)c(=O)[nH]2)N1` [Example 4-105, 6-{(E)-1-[4-Chloro-3-(trifluoromethyl)phenyl]-2-[(2R)-5-oxopyrrolidin-2-yl]ethenyl}-3-cyclopropylpyridin-2(1H)-one] here?
**A.** 10 to 500 nM

**Q.** Which EC50 does the source give for `Cc1ccc(/C(=C\[C@H]2CCC(=O)N2)c2ccc(C3CC3)c(=O)[nH]2)cc1Cl` [Example 4-106, 6-{(E)-1-(3-Chloro-4-methylphenyl)-2-[(2R)-5-oxopyrrolidin-2-yl]ethenyl}-3-cyclopropylpyridin-2(1H)-one] here?
**A.** 10 to 500 nM

**Q.** Which EC50 does the source give for `Cc1cc(/C(=C\[C@H]2CCC(=O)N2)c2ccc(C3CC3)c(=O)[nH]2)ccc1Cl` [Example 4-107, 6-{(E)-1-(4-Chloro-3-methylphenyl)-2-[(2R)-5-oxopyrrolidin-2-yl]ethenyl}-3-cyclopropylpyridin-2(1H)-one] here?
**A.** 10 to 500 nM

**Q.** `O=C1CC[C@H](/C=C(\c2ccc(C(F)(F)F)nc2)c2ccc(C3CC3)c(=O)[nH]2)N1` [Example 4-108, 3-Cyclopropyl-6-{(E)-2-[(2R)-5-oxopyrrolidin-2-yl]-1-[6-(trifluoromethyl)pyridin-3-yl]ethenyl}pyridin-2(1H)-one] was tested. Which EC50 did it give?
**A.** 500 to 3000 nM

**Q.** For `Cc1ccc(/C(=C\[C@H]2CCC(=O)N2)c2ccc(C3CC3)c(=O)[nH]2)c(Cl)c1` [Example 4-109, 6-{(E)-1-(2-Chloro-4-methylphenyl)-2-[(2R)-5-oxopyrrolidin-2-yl]ethenyl}-3-cyclopropylpyridin-2(1H)-one], which EC50 is on record?
**A.** 500 to 3000 nM

**Q.** For `O=C1CC[C@H](/C=C(/c2ccc(C3CC3)c(=O)[nH]2)c2ccc(Cl)cc2C(F)(F)F)N1` [Example 4-110, 6-{(E)-1-[4-Chloro-2-(trifluoromethyl)phenyl]-2-[(2R)-5-oxopyrrolidin-2-yl]ethenyl}-3-cyclopropylpyridin-2(1H)-one], which EC50 is on record?
**A.** 500 to 3000 nM

**Q.** `O=C1CC[C@H](/C=C(\c2ccc(Cl)c(F)c2)c2ccc(C3CC3)c(=O)[nH]2)N1` [Example 4-111, 6-{(E)-1-(4-Chloro-3-fluorophenyl)-2-[(2R)-5-oxopyrrolidin-2-yl]ethenyl}-3-cyclopropylpyridin-2(1H)-one] was tested. Which EC50 did it give?
**A.** 10 to 500 nM

**Q.** How did the EC50 turn out when `O=C1CC[C@H](/C=C(\c2ccc(F)c(F)c2)c2ccc(C3CC3)c(=O)[nH]2)N1` [Example 4-112, 3-Cyclopropyl-6-{(E)-1-(3,4-difluorophenyl)-2-[(2R)-5-oxopyrrolidin-2-yl]ethenyl}pyridin-2(1H)-one] was run?
**A.** 500 to 3000 nM

**Q.** Which EC50 does the source give for `Cc1cc(/C(=C\[C@H]2CCC(=O)N2)c2ccc(C3CC3)c(=O)[nH]2)ccc1F` [Example 4-113, 3-Cyclopropyl-6-{(E)-1-(4-fluoro-3-methylphenyl)-2-[(2R)-5-oxopyrrolidin-2-yl]ethenyl}pyridin-2(1H)-one] here?
**A.** 500 to 3000 nM

**Q.** Which EC50 does the source give for `Cc1ccc(/C(=C\[C@H]2CCC(=O)N2)c2ccc(C3CC3)c(=O)[nH]2)cc1F` [Example 4-114, 3-Cyclopropyl-6-{(E)-1-(3-fluoro-4-methylphenyl)-2-[(2R)-5-oxopyrrolidin-2-yl]ethenyl}pyridin-2(1H)-one] here?
**A.** 10 to 500 nM

**Q.** For `Cc1ccc(/C(=C\[C@H]2CCC(=O)N2)c2ccc(C3CC3)c(=O)[nH]2)cc1C` [Example 4-115, 3-Cyclopropyl-6-{(E)-1-(3,4-dimethylphenyl)-2-[(2R)-5-oxopyrrolidin-2-yl]ethenyl}pyridin-2(1H)-one], which EC50 is on record?
**A.** 10 to 500 nM

**Q.** Which EC50 does the source give for `O=C1CC[C@H](/C=C(\c2ccc(C(F)(F)F)c(F)c2)c2ccc(C3CC3)c(=O)[nH]2)N1` [Example 4-116, 3-Cyclopropyl-6-{(E)-1-[3-fluoro-4-(trifluoromethyl)phenyl]-2-[(2R)-5-oxopyrrolidin-2-yl]ethenyl}pyridin-2(1H)-one] here?
**A.** 10 to 500 nM

**Q.** Which EC50 does the source give for `O=C1CC[C@H](/C=C(\c2ccc(F)c(C(F)(F)F)c2)c2ccc(C3CC3)c(=O)[nH]2)N1` [Example 4-117, 3-Cyclopropyl-6-{(E)-1-[4-fluoro-3-(trifluoromethyl)phenyl]-2-[(2R)-5-oxopyrrolidin-2-yl]ethenyl}pyridin-2(1H)-one] here?
**A.** 500 to 3000 nM

**Q.** `O=C1CC[C@H](/C=C(/c2ccc(C3CC3)c(=O)[nH]2)c2ccc(C(F)(F)F)cc2C(F)(F)F)N1` [Example 4-118, 6-{(E)-1-[2,4-Bis(trifluoromethyl)phenyl]-2-[(2R)-5-oxopyrrolidin-2-yl]ethenyl}-3-cyclopropylpyridin-2(1H)-one] was tested. Which EC50 did it give?
**A.** 3000 to 10000 nM

**Q.** How did the EC50 turn out when `O=C1CC[C@H](/C=C(\c2cc(C(F)(F)F)cc(C(F)(F)F)c2)c2ccc(C3CC3)c(=O)[nH]2)N1` [Example 4-119, 6-{(E)-1-[3,5-Bis(trifluoromethyl)phenyl]-2-[(2R)-5-oxopyrrolidin-2-yl]ethenyl}-3-cyclopropylpyridin-2(1H)-one] was run?
**A.** 500 to 3000 nM

**Q.** With `O=C1CC[C@H](/C=C(\c2ccc(Cl)nc2)c2ccc(C3CC3)c(=O)[nH]2)N1` [Example 4-120, 6-{(E)-1-(6-Chloropyridin-3-yl)-2-[(2R)-5-oxopyrrolidin-2-yl]ethenyl}-3-cyclopropylpyridin-2(1H)-one] as the compound, how does the EC50 read?
**A.** 500 to 3000 nM

**Q.** With `O=C1CC[C@H](/C=C(\c2ccc(F)nc2)c2ccc(C3CC3)c(=O)[nH]2)N1` [Example 4-121, 3-Cyclopropyl-6-{(E)-1-(6-fluoropyridin-3-yl)-2-[(2R)-5-oxopyrrolidin-2-yl]ethenyl}pyridin-2(1H)-one] as the compound, how does the EC50 read?
**A.** 3000 to 10000 nM

**Q.** How did the EC50 turn out when `O=C1CC[C@H](/C=C(/c2ccc(C3CC3)c(=O)[nH]2)c2ccc(F)cc2O)N1` [Example 4-122, 3-Cyclopropyl-6-{(E)-1-(4-fluoro-2-hydroxyphenyl)-2-[(2R)-5-oxopyrrolidin-2-yl]ethenyl}pyridin-2(1H)-one] was run?
**A.** 10 to 500 nM
